US9724537B2, “Abnormal electrical conduction blocking apparatus using photodynamic therapy (PDT)” (Keio University, priority 2006, dated 2017)

Assays:
[1] = test system: rat cardiac muscle cells in primary culture; assay: PDT cell lethality (CCK-8) in cardiac muscle cells in primary culture; assay type: cell-based
Protocol: The relationship between the photosensitizer concentration and the cell lethality and the laser output required to induce a cell death were investigated using rat cardiac muscle cells in primary culture.
Cardiac muscle cells in primary culture were purchased from Cell Garage Co., Ltd. as an extract from the rat ventricular muscle. As a medium, D-MEM/F12+10% FBS was used.
Cardiac muscle cells in primary culture were purchased in suspension and seeded on a 96-well microplate. Cells were cultured at 37° C. under 5% CO2, and cells on days 3 and 7 of culture were used. The cardiac muscle cells in primary culture were pulsatile, and pulsations among cells were synchronizing.
Cardiac muscle cells in primary culture were adjusted to a density of 2.0×10^4 cells/well. As a photosensitizer talaporfin sodium was dissolved in a medium at various concentrations and added at a concentration of 0.1 ml/well. After 1 to 2 h of loading, laser irradiation was performed, and the medium was replaced after the completion of irradiation.
At this time, a 0.5-cm^2 irradiation field (=area of well) was irradiated with a continuous semiconductor laser beam (peak wavelength, 670.8 nm) under various conditions.
After laser irradiation, 0.01 ml of Cell Counting Kit-8 (Dojindo Laboratories, hereinafter referred to as CCK-8) was added to the medium in each well, the plate was incubated for 2 h, and the absorbance was measured to calculate the cell lethality. Six samples were examined
The experimental conditions were as follows.
(i) Cells on day 3 of culture
Used cells: cells on day 3 of culture
Agent concentrations: 5, 10, 15 μg/ml
Laser intensity: 150 mW/cm^2
Total energy density: 1, 2, 3, 5 J/cm^2
(ii) Cells on day 7 of culture
Used cells: cells on day 7 of culture
Agent concentrations: 20, 25, 30 μg/ml
Total energy density: 3 J/cm^2

[2] = Fluorescence observation of photosensitizer distribution in rat cardiac muscle tissue over time; assay type: in vivo, Wistar rat; details: 2 mg/kg i.v.
Protocol: As a tissue, the right ventricular free wall isolated from a Wistar rat (male, 8 to 10 weeks old) was used. Immediately after animals were allowed to inhale vaporized diethyl ether, heparin and Nembutal (0.2 and 0.5 ml, respectively) were administered intraperitoneally at a dose of 2 mg/kg, and a solution of Laserphyrin (Meiji Seika Kaisha, Ltd.) dissolved in physiological saline at a dose of 0.5 ml were intravenously injected from the lower extremity vena cava. The heart was isolated at 5 min (Experiment 1), 30 min (Experiment 2), and 60 min (Experiment 3) after injection, and the target tissue was ablated. […] As a sample for fluorescence observation, a cross-section of the above-mentioned tissue was excised in a thickness of 10 μm using a freezing microtome in the direction in which the base and the apex of the heart are aligned, placed on a slide glass, and dried for one or two days.
A light of a mercury lamp (Olympus Corporation) was attenuated with an ND filter (Olympus Corporation, 12%), and only a light in the 400-nm band was extracted with a band path filter (Olympus Corporation) and delivered to the sample as an excitation light. Fluorescence of the photosensitizer was selectively extracted with a dichroic mirror (OMEGA, 636 nm-) and a band path filter (OMEGA, 695 nm; half bandwidth, 27.5 nm) and photographed with a CCD camera. […]

Q: With `C=Cc1c(C)c2cc3nc(c(CC(=O)N[C@@H](CC(=O)O)C(=O)O)c4[nH]c(cc5nc(cc1[nH]2)C(C)=C5CC)c(C)c4C(=O)O)[C@@H](CCC(=O)O)[C@@H]3C` [talaporfin sodium, mono-L-aspartyl chlorine 6] as the compound, how does the “cell lethality at 5 J/cm^2 vs 3 J/cm^2” value ([1]; cells on day 3 of culture, 15 μg/ml) read?
A: The value was “the cell lethality decreased at the total energy density of laser irradiation of 5 J/cm^2 as compared with that at 3 J/cm^2”.

Q: And the “cell lethality vs total energy density” value ([1]; cells on day 3 of culture, high talaporfin sodium concentration, 1, 2, 3, 5 J/cm^2, FIG. 10)?
A: Its value is “the greater the total energy density of laser irradiation was, the higher cell lethality was”.

Q: And the “cell lethality, day 7 vs day 3 cells” value ([1]; cells on day 7 of culture, 20, 25, 30 μg/ml, 3 J/cm^2, FIG. 11)?
A: The value was “the cell lethality was higher than when cells on day 3 of culture were used”.

Q: What about the “photosensitizer distribution in cardiac muscle tissue” value ([2]; 30 and 60 min after injection) of the same compound?
A: The value was “white streaks were observed all over the images at 30 and 60 min, showing the existence of the photosensitizer in the surroundings”.

Q: What about the “photosensitizer distribution in cardiac muscle tissue” value ([2]; approx. 5 min after injection) of the same compound?
A: The value was “almost no photosensitizer was present immediately after the intravenous injection”.
